Source: ChEMBL document CHEMBL3596129, “Osthol and curcumin as inhibitors of human Pgp and multidrug efflux pumps of Staphylococcus aureus: reversing the resistance against frontline antibacterial drugs” (Medchemcomm, 2014)

Columns and labels:
[1] = tested on: Staphylococcus aureus; assay: Inhibition of TetK overexpressed in Staphylococcus aureus K2192 assessed as decrease in tetracycline MIC at 3.12 uM after 24 hrs by broth checkerboard method relative to control
[2] = target: T1, Quinolone resistance protein NorA (Staphylococcus aureus) (UniProt P0A0J7); assay: Inhibition of NorA overexpressed in Staphylococcus aureus SA1199B assessed as ciprofloxacin MIC at 3.12 uM after 24 hrs by broth checkerboard method (reference value: 8 ug/ml)
T1 sequence (whole entry): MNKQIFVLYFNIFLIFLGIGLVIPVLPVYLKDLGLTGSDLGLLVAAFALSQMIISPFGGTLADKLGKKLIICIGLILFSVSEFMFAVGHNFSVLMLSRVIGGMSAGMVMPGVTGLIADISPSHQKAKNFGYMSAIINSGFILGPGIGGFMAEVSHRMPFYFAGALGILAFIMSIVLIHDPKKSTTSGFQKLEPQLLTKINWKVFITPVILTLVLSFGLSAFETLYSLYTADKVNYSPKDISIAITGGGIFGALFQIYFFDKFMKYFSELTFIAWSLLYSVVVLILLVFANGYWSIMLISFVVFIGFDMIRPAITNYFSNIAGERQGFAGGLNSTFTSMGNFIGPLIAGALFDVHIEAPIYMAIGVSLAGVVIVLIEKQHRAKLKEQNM

[3] = tested on: Staphylococcus aureus; assay: Inhibition of TetK overexpressed in Staphylococcus aureus K2192 assessed as tetracycline MIC at 3.12 uM after 24 hrs by broth checkerboard method (reference value: 32 ug/ml)
[4] = tested on: Staphylococcus aureus; assay: Inhibition of MsrA overexpressed in Staphylococcus aureus K2191 assessed as erythromycin MIC at 3.12 uM after 24 hrs by broth checkerboard method (reference value: 64 ug/ml)
[5] = target: T2, Fluoroquinolone resistance protein (Staphylococcus aureus) (UniProt A0A0C5K5S3); assay: Inhibition of MdeA overexpressed in Staphylococcus aureus Mupr-1 assessed as mupirocin MIC at 3.12 uM after 24 hrs by broth checkerboard method (reference value: 256 ug/ml)
T2 sequence (whole entry): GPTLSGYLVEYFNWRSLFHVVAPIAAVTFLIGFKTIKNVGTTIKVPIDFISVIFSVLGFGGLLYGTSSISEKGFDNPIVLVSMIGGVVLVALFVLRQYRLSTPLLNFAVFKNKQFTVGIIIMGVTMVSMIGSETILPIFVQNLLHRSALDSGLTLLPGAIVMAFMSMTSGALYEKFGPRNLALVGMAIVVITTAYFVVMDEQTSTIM

[6] = target: T1, Quinolone resistance protein NorA (Staphylococcus aureus); assay: Inhibition of NorA overexpressed in Staphylococcus aureus SA1199B assessed as decrease in ciprofloxacin MIC at 3.12 uM after 24 hrs by broth checkerboard method relative to control
[7] = target: T3, ATP-dependent translocase ABCB1 (Homo sapiens, UniProt P08183); assay: Inhibition of P-gp in human LS180 cells at 50 uM after 90 mins by rhodamine123 cell exclusion method; type: cell-based; conditions: ls180, 1.5 h
[8] = tested on: Staphylococcus aureus; assay: Inhibition of MsrA overexpressed in Staphylococcus aureus K2191 assessed as decrease in erythromycin MIC at 3.12 uM after 24 hrs by broth checkerboard method relative to control
[9] = target: T2, Fluoroquinolone resistance protein (Staphylococcus aureus); assay: Inhibition of MdeA overexpressed in Staphylococcus aureus Mupr-1 assessed as decrease in mupirocin MIC at 3.12 uM after 24 hrs by broth checkerboard method relative to control
[10] = target: T2, Fluoroquinolone resistance protein (Staphylococcus aureus); assay: Inhibition of MdeA overexpressed in Staphylococcus aureus Mupr-1 assessed as decrease in mupirocin MIC at 25 uM after 24 hrs by broth checkerboard method relative to control
[11] = target: T3, ATP-dependent translocase ABCB1; assay: Inhibition of P-gp in human LS180 cells after 90 mins by rhodamine123 cell exclusion method; type: cell-based
[12] = target: T2, Fluoroquinolone resistance protein (Staphylococcus aureus); assay: Inhibition of MdeA overexpressed in Staphylococcus aureus Mupr-1 assessed as mupirocin MIC at 25 uM after 24 hrs by broth checkerboard method (reference value: 256 ug/ml)
[13] = target: CYP3A4 (Homo sapiens, UniProt P08684); assay: Inhibition of human CYP3A4 at 10 uM preincubated for 10 mins with cofactor followed by mixture of enzyme-substrate addition by fluorescence assay relative to control; type: ADME
Sequence of CYP3A4 (P08684 whole entry): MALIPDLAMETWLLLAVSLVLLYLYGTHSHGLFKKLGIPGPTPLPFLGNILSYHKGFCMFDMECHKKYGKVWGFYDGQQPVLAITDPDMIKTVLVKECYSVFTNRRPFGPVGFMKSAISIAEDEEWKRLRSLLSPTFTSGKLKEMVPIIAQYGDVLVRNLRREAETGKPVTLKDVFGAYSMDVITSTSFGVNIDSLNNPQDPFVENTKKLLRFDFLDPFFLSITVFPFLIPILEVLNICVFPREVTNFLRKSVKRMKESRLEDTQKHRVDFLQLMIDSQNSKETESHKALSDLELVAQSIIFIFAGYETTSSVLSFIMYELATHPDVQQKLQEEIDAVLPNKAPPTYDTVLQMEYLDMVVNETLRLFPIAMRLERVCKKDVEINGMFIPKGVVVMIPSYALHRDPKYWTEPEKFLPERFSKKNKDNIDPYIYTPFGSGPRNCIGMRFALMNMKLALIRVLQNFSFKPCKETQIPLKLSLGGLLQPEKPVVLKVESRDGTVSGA

[14] = tested on: Staphylococcus aureus; assay: Inhibition of MsrA overexpressed in Staphylococcus aureus K2191 assessed as erythromycin MIC at 25 uM after 24 hrs by broth checkerboard method (reference value: 64 ug/ml)
[15] = tested on: Staphylococcus aureus; assay: Inhibition of MsrA overexpressed in Staphylococcus aureus K2191 assessed as decrease in erythromycin MIC at 25 uM after 24 hrs by broth checkerboard method relative to control
[16] = target: CYP2C19 (Homo sapiens, UniProt P33261); assay: Inhibition of human CYP2C19 at 10 uM preincubated for 10 mins with cofactor followed by mixture of enzyme-substrate addition by fluorescence assay relative to control; type: ADME
Sequence of CYP2C19 (P33261 whole entry): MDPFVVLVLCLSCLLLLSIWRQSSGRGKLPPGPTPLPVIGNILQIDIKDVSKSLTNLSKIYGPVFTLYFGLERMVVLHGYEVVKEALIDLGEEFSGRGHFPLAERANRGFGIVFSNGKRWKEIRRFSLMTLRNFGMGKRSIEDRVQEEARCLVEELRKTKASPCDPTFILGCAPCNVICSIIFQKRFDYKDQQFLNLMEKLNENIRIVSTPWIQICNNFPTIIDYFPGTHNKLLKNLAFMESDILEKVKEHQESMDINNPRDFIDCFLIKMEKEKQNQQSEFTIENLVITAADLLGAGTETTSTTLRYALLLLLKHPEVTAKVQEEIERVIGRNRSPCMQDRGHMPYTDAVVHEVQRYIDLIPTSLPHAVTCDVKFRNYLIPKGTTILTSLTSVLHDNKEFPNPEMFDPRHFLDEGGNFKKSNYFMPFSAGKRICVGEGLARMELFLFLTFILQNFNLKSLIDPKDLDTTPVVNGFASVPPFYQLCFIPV

[17] = target: CYP2D6 (Homo sapiens, UniProt P10635); assay: Inhibition of human CYP2D6 at 10 uM preincubated for 10 mins with cofactor followed by mixture of enzyme-substrate addition by fluorescence assay relative to control; type: ADME
Sequence of CYP2D6 (P10635 whole entry): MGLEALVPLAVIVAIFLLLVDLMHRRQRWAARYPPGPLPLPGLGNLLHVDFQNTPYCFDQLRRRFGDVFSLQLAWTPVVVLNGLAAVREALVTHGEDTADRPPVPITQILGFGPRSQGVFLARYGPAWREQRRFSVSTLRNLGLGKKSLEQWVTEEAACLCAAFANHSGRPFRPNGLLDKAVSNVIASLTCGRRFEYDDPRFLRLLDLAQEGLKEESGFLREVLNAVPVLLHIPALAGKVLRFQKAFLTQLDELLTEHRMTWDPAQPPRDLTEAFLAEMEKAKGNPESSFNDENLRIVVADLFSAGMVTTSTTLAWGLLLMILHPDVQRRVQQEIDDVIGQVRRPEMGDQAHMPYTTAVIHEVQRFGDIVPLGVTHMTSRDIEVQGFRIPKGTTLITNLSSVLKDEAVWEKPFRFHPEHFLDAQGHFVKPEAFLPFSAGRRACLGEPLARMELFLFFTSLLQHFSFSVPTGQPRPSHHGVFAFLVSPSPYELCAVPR

[18] = tested on: P-gp; assay: Substrate activity at P-gp in human Caco2 cells assessed as apparent permeability across apical to basolateral side at 10 uM after 90 mins by HPLC with mass spectrometric method; type: ADME, cell-based; conditions: Caco-2
[19] = tested on: Staphylococcus aureus; assay: Inhibition of TetK overexpressed in Staphylococcus aureus K2192 assessed as decrease in tetracycline MIC at 25 uM after 24 hrs by broth checkerboard method relative to control
[20] = target: CYP2C9 (Homo sapiens, UniProt P11712); assay: Inhibition of human CYP2C9 at 10 uM preincubated for 10 mins with cofactor followed by mixture of enzyme-substrate addition by fluorescence assay relative to control; type: ADME
Sequence of CYP2C9 (P11712 whole entry): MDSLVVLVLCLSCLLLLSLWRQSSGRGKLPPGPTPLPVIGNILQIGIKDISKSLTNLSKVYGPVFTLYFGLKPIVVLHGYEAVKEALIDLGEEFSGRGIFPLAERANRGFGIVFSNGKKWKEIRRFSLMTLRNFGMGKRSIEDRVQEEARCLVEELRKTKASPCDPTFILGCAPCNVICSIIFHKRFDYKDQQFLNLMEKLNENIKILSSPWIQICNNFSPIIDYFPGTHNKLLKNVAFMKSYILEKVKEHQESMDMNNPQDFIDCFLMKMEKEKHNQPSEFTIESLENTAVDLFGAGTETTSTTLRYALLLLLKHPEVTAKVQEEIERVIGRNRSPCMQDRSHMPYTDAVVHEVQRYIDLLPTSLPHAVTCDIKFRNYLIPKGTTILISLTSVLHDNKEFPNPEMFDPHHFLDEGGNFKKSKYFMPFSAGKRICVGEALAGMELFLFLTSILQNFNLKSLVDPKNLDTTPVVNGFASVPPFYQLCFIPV

[21] = target: T1, Quinolone resistance protein NorA (Staphylococcus aureus); assay: Inhibition of NorA overexpressed in Staphylococcus aureus SA1199B assessed as ciprofloxacin MIC at 25 uM after 24 hrs by broth checkerboard method (reference value: 8 ug/ml)
[22] = tested on: P-gp; assay: Substrate activity at P-gp in human Caco2 cells assessed as efflux ratio of apparent permeability across basolateral to apical side over apical to basolateral side at 10 uM after 90 mins by HPLC with mass spectrometric method; type: ADME, cell-based; conditions: Caco-2
[23] = tested on: P-gp; assay: Substrate activity at P-gp in human Caco2 cells assessed as apparent permeability across basolateral to apical side at 10 uM after 90 mins by HPLC with mass spectrometric method; type: ADME, cell-based; conditions: Caco-2
[24] = tested on: Staphylococcus aureus; assay: Inhibition of TetK overexpressed in Staphylococcus aureus K2192 assessed as tetracycline MIC at 25 uM after 24 hrs by broth checkerboard method (reference value: 32 ug/ml)
[25] = target: T1, Quinolone resistance protein NorA (Staphylococcus aureus); assay: Inhibition of NorA overexpressed in Staphylococcus aureus SA1199B assessed as decrease in ciprofloxacin MIC at 25 uM after 24 hrs by broth checkerboard method relative to control

CC(=O)c1c(O)c(C)c(O)c(Cc2c3c(c(O)c4c2OC(c2ccccc2)CC4=O)C=CC(C)(C)O3)c1O (stereo unspecified)
fold change (FC) [1]: 0
MIC [2]: 2 µg/mL
MIC [3]: 32 µg/mL
MIC [4]: 64 µg/mL
MIC [5]: 256 µg/mL
fold change (FC) [6]: 4
inhibition (INH) [7]: Not Active
fold change (FC) [8]: 0
fold change (FC) [9]: 0

COc1ccc2ccc(=O)oc2c1CC=C(C)C [OSTHOLE]
fold change (FC) [10]: 0
IC50 [11]: 34 µM
MIC [12]: 256 µg/mL
inhibition at 10 µM [13]: 27.3%
MIC [14]: 64 µg/mL
fold change (FC) [15]: 0
inhibition at 10 µM [16]: 56.5%
inhibition at 10 µM [17]: 60.5%
Papp A→B at 1.5 h, 10 µM [18]: 26 ×10⁻⁶ cm/s
fold change (FC) [19]: 2
inhibition at 10 µM [20]: 39.8%
MIC [21]: 2 µg/mL
efflux ratio at 1.5 h, 10 µM [22]: 1.3
inhibition (INH) [7]: Not Active
Papp B→A at 1.5 h, 10 µM [23]: 35 ×10⁻⁶ cm/s
MIC [24]: 16 µg/mL
fold change (FC) [25]: 4
